Publication PMC10096180, “Half-Sandwich Type Platinum-Group Metal Complexes of C-Glucosaminyl Azines: Synthesis and Antineoplastic and Antimicrobial Activities” (Molecules, 2023)
Where two headings read alike, the source gives them in different places.

Assays:
[1] = tested on: A2780 cells; assay: SRB binding assay, cytostasis, 48 h treatment; format: cell-based
In short: (§1)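 Ovarian cancer A2780 cells and primary human dermal fibroblasts treated 48 h, TCA-fixed, SRB-stained, absorbance at 540 nm relative to vehicle. IC50 from four-parameter fit when a plateau was reached or inhibition exceeded 90%; otherwise percent inhibition at 100 μM.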

[2] = target: primary human dermal fibroblasts; assay: SRB binding assay, cytostasis, 48 h treatment; format: cell-based; conditions: read-out: Fibroblast SRB IC50
In short: as §1

[3] = tested on: vancomycin-resistant Enterococcus (VRE) clinical isolates; assay: Broth microdilution MIC, clinical VRE isolates; format: cell-based, E. faecium; conditions: 24 h, 0.08–40 μM
In short: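 S. aureus and E. faecium clinical isolates (Debrecen, 2018–2020; MALDI-TOF-identified) tested by EUCAST broth microdilution in Mueller–Hinton broth at 5.0 × 10^5 CFU/mL across 0.08–40 μM (twofold). After 24 h at 37 °C, visually read; MIC is the lowest concentration giving ≥50% inhibition versus growth control. At least two runs in duplicate.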

IC50 [1]: 1.86 µM | IC50 [2]: 9.62 µM | MIC ([3]; clinical isolate 25,051 VRE, read-out: MIC 25,051 VRE): 5 µM | MIC ([3]; clinical isolate 25,498 VRE, read-out: MIC 25,498 VRE): 5 µM | MIC ([3]; clinical isolate 27,085 VRE, read-out: MIC 27,085 VRE): 5 µM
Structure (SMILES): Cc1ccc(C(C)C)cc1.F[P-](F)(F)(F)(F)F.N[C@@H]1[C@@H](OCc2ccccc2)[C@H](OCc2ccccc2)[C@@H](COCc2ccccc2)O[C@H]1c1ccccn1.[Cl][Ru+] [Ru-3a]
A2780 SRB Max Inhibition ([1]; up to 100 μM, ND = not detectable): >90%
